Marks after values point to notes of the source that are not given here.
Biological target: AgrA (Staphylococcus aureus, UniProt P0A0I7)
Test: cell-based
Design: species or system S. aureus USA300 strain UAMS-1625
Conditions: for Ratio IC50 (in presence of HSA)/IC50 (in absence of HSA): 40 mg/mL HSA vs without HSA; for Ratio (cells marked *): calculated based on activity in presence of 50% of human serum
[1] = LB medium supplemented with 40 mg/mL human serum albumin
[2] = IC50 at 40 mg/mL HSA, LB medium supplemented with 40 mg/mL human serum albumin
[3] = IC50 without HSA, LB medium, without HSA
[4] = concentration inhibiting the expression of lacZ, in the absence of HSA or HS
[5] = IC50 at 40 mg/mL HSA (cells marked *), marked *: activity in presence of 50% of human serum, not determined in 40 mg/mL HSA

Chain of AgrA (P0A0I7 whole entry): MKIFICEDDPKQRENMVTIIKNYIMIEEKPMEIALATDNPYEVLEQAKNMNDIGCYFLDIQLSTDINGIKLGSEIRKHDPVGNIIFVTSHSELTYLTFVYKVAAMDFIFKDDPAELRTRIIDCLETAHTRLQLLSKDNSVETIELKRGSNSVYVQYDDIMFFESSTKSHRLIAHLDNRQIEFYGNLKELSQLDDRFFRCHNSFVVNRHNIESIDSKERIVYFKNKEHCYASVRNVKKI

In the case of “3-(2,4-dimethylbenzenesulfonyl)-8-(4-methanesulfonylpiperazin-1-yl)-4H,5H-[1,2,3]triazolo[1,5-a]quinazolin-5-one [Compound 61]”, the “Ratio IC50 (in presence of HSA)/IC50 (in absence of HSA)” value (from here on “Ratio IC50 (in presence of HSA)/IC50”) is reported as “++ (ratio ≤ 125)”, the “IC50 at 40 mg/mL HSA” value [1] is reported as “++ (10 μg/mL < IC50 ≤ 50 μg/mL)” and the “IC50 without HSA” value (LB medium, without HSA) is reported as “+++ (IC50 ≤ 1 μg/mL)”.

With “3-(2,4-dimethylbenzenesulfonyl)-8-(piperazin-1-yl)-4H,5H-[1,2,3]triazolo[1,5-a]quinazolin-5-one [Compound 23]” the “Ratio IC50 (in presence of HSA)/IC50” value was “+++ (ratio ≤ 25)”, the “IC50 at 40 mg/mL HSA” value [1] was “++ (10 μg/mL < IC50 ≤ 50 μg/mL)” and the “IC50 without HSA” value (LB medium, without HSA) was “+++ (IC50 ≤ 1 μg/mL)”.

In the case of “3-(2,4-dimethylbenzenesulfonyl)-8-{9-methyl-2,9-diazaspiro[5.5]undecan-2-yl}-1H,5H-[1,2,3]triazolo[1,5-a]quinazolin-5-one [Compound 5]”, the “Ratio IC50 (in presence of HSA)/IC50” value is reported as “+++ (ratio ≤ 25)”, the “IC50 at 40 mg/mL HSA” value [1] is reported as “++ (10 μg/mL < IC50 ≤ 50 μg/mL)” and the “IC50 without HSA” value (LB medium, without HSA) is reported as “+++ (IC50 ≤ 1 μg/mL)”.

For “4-[3-(2,4-dimethylbenzenesulfonyl)-5-oxo-4H,5H-[1,2,3]triazolo[1,5-a]quinazolin-8-yl]piperazine-1-sulfonamide [Compound 62]”, the “Ratio IC50 (in presence of HSA)/IC50” value was “++ (ratio ≤ 125)”, the “IC50 at 40 mg/mL HSA” value [1] was “++ (10 μg/mL < IC50 ≤ 50 μg/mL)” and the “IC50 without HSA” value (LB medium, without HSA) was “+++ (IC50 ≤ 1 μg/mL)”.

For Cc1ccc(S(=O)(=O)c2nnn3c2[nH]c(=O)c2ccc(N4C[C@H](C)NC[C@H]4C)cc23)c(C)c1 (racemic) [Compound 28, rac-3-(2,4-dimethylbenzenesulfonyl)-8-[(2R,5S)-2,5-dimethylpiperazin-1-yl]-4H,5H-[1,2,3]triazolo[1,5-a]quinazolin-5-one], the “Ratio IC50 (in presence of HSA)/IC50” value was “+++ (ratio ≤ 25)”, the IC50 [2] was under 21.4 µM and the IC50 [3] was under 2.14 µM.

In the case of Cc1ccc(S(=O)(=O)c2nnn3c2[nH]c(=O)c2ccc(N4CCC4)cc23)c(C)c1 [45 (WO 2020/109350), reference compound], the “Ratio IC50 (in presence of HSA)/IC50” value is reported as “+ (ratio > 125)”, the IC50 [2] is reported as over 122 µM and the IC50 [3] is reported as under 2.44 µM. For the same compound, the IC50 [4] was under 2.44 µM and the “activity in the presence of HSA (or HS), inactive at highest concentration tested” value (in the presence of HSA (or HS)) was over 128 µg/mL.

With Cc1ccc(S(=O)(=O)c2nnn3c2[nH]c(=O)c2cc(O)ccc23)c(C)c1 [46 (WO 2020/109350), reference compound] the IC50 [5] was over 135 µM, the IC50 [3] was under 2.7 µM and the “Ratio (cells marked *)” value was “+* (ratio > 125)”. The IC50 [4] was under 2.7 µM.

With COCCOc1cc2c(cc1O)c(=O)[nH]c1c(S(=O)(=O)c3ccc(C)cc3C)nnn12 [58 (WO 2020/109350), reference compound] the IC50 [5] was over 112 µM, the IC50 [3] was under 2.25 µM and the “Ratio (cells marked *)” value was “+* (ratio > 125)”. For the same compound, the IC50 [4] was under 2.25 µM.

In the case of Cc1ccc(S(=O)(=O)c2nnn3c2[nH]c(=O)c2cc(O)c(N4CCN(C)CC4)cc23)c(C)c1 [Compound 1, 3-(2,4-dimethylbenzenesulfonyl)-7-hydroxy-8-(4-methylpiperazin-1-yl)-4H,5H-[1,2,3]triazolo[1,5-a]quinazolin-5-one], the “Ratio IC50 (in presence of HSA)/IC50” value is reported as “+++ (ratio ≤ 25)”, the IC50 [2] is reported as under 21.3 µM and the IC50 [3] is reported as under 2.13 µM.

Cc1ccc(S(=O)(=O)c2nnn3c2[nH]c(=O)c2cc(O)c(N4CC5(CN(C)C5)C4)cc23)c(C)c1 [Compound 2, 3-(2,4-dimethylbenzenesulfonyl)-7-hydroxy-8-{6-methyl-2,6-diazaspiro[3.3]heptan-2-yl}-4H,5H-[1,2,3]triazolo[1,5-a]quinazolin-5-one] was tested, and the “Ratio IC50 (in presence of HSA)/IC50” value was “+++ (ratio ≤ 25)”, the IC50 [2] was under 20.8 µM and the IC50 [3] was under 2.08 µM.

Cc1ccc(S(=O)(=O)c2n[nH]n3c2nc(=O)c2ccc(N4CCC5(CCN(C)CC5)C4)cc23)c(C)c1 [Compound 3, 3-(2,4-dimethylbenzenesulfonyl)-8-{8-methyl-2,8-diazaspiro[4.5]decan-2-yl}-1H,5H-[1,2,3]triazolo[1,5-a]quinazolin-5-one] was tested, and the “Ratio IC50 (in presence of HSA)/IC50” value was “+++ (ratio ≤ 25)”, the IC50 [2] was under 19.7 µM and the IC50 [3] was under 1.97 µM.

In the case of Cc1ccc(S(=O)(=O)c2n[nH]n3c2nc(=O)c2ccc(N4CCC5(CCCN(C)C5)CC4)cc23)c(C)c1 [Compound 4, 3-(2,4-dimethylbenzenesulfonyl)-8-{2-methyl-2,9-diazaspiro[5.5]undecan-9-yl}-1H,5H-[1,2,3]triazolo[1,5-a]quinazolin-5-one], the “Ratio IC50 (in presence of HSA)/IC50” value is reported as “+++ (ratio ≤ 25)”, the IC50 [2] is reported as 19.2 to 96 µM and the IC50 [3] is reported as 1.92 to 9.6 µM.

For Cc1ccc(S(=O)(=O)c2n[nH]n3c2nc(=O)c2ccc(N4CCC5(CCN(C)CC5)CC4)cc23)c(C)c1 [Compound 6, 3-(2,4-dimethylbenzenesulfonyl)-8-{9-methyl-3,9-diazaspiro[5.5]undecan-3-yl}-1H,5H-[1,2,3]triazolo[1,5-a]quinazolin-5-one], the “Ratio IC50 (in presence of HSA)/IC50” value was “+++ (ratio ≤ 25)”, the IC50 [2] was 19.2 to 96 µM and the IC50 [3] was 1.92 to 9.6 µM.

With Cc1ccc(S(=O)(=O)c2nnn3c2[nH]c(=O)c2ccc(N4CCC5(CNCCO5)C4)cc23)c(C)c1 (stereo not shown) [Compound 7, 3-(2,4-dimethylbenzenesulfonyl)-8-{6-oxa-2,9-diazaspiro[4.5]decan-2-yl}-4H,5H-[1,2,3]triazolo[1,5-a]quinazolin-5-one] the “Ratio IC50 (in presence of HSA)/IC50” value was “+++ (ratio ≤ 25)”, the IC50 [2] was under 20.2 µM and the IC50 [3] was under 2.02 µM.

For Cc1ccc(S(=O)(=O)c2nnn3c2[nH]c(=O)c2ccc(N4CCC5(CN(C)CCO5)C4)cc23)c(C)c1 (stereo not shown) [Compound 8, 3-(2,4-dimethylbenzenesulfonyl)-8-{9-methyl-6-oxa-2,9-diazaspiro[4.5]decan-2-yl}-4H,5H-[1,2,3]triazolo[1,5-a]quinazolin-5-one], the “Ratio IC50 (in presence of HSA)/IC50” value was “+++ (ratio ≤ 25)”, the IC50 [2] was 19.7 to 98.3 µM and the IC50 [3] was under 1.97 µM.

With Cc1ccc(S(=O)(=O)c2nnn3c2[nH]c(=O)c2ccc(N4CCOC5(CNC5)C4)cc23)c(C)c1 [Compound 9, 3-(2,4-dimethylbenzenesulfonyl)-8-{5-oxa-2,8-diazaspiro[3.5]nonan-8-yl}-4H,5H-[1,2,3]triazolo[1,5-a]quinazolin-5-one] the “Ratio IC50 (in presence of HSA)/IC50” value was “+++ (ratio ≤ 25)”, the IC50 [2] was 20.8 to 104 µM and the IC50 [3] was 2.08 to 10.4 µM.

Cc1ccc(S(=O)(=O)c2nnn3c2[nH]c(=O)c2ccc(N4CCOC5(CN(C)C5)C4)cc23)c(C)c1 [Compound 10, 3-(2,4-dimethylbenzenesulfonyl)-8-{2-methyl-5-oxa-2,8-diazaspiro[3.5]nonan-8-yl}-4H,5H-[1,2,3]triazolo[1,5-a]quinazolin-5-one] was tested, and the “Ratio IC50 (in presence of HSA)/IC50” value was “+++ (ratio ≤ 25)”, the IC50 [2] was 20.2 to 101 µM and the IC50 [3] was 2.02 to 10.1 µM.

Cc1ccc(S(=O)(=O)c2nnn3c2[nH]c(=O)c2ccc(N4CCC45CN(C)C5)cc23)c(C)c1 [Compound 11, 3-(2,4-dimethylbenzenesulfonyl)-8-{6-methyl-1,6-diazaspiro[3.3]heptan-1-yl}-4H,5H-[1,2,3]triazolo[1,5-a]quinazolin-5-one] was tested, and the “Ratio IC50 (in presence of HSA)/IC50” value was “+++ (ratio ≤ 25)”, the IC50 [2] was 21.5 to 108 µM and the IC50 [3] was 2.15 to 10.8 µM.

With Cc1ccc(S(=O)(=O)c2nnn3c2[nH]c(=O)c2ccc(N4CC5(CCN5C)C4)cc23)c(C)c1 [Compound 12, 3-(2,4-dimethylbenzenesulfonyl)-8-{1-methyl-1,6-diazaspiro[3.3]heptan-6-yl}-4H,5H-[1,2,3]triazolo[1,5-a]quinazolin-5-one] the “Ratio IC50 (in presence of HSA)/IC50” value was “+++ (ratio ≤ 25)”, the IC50 [2] was 21.5 to 108 µM and the IC50 [3] was under 2.15 µM.

In the case of Cc1ccc(S(=O)(=O)c2nnn3c2[nH]c(=O)c2ccc(N4CC5(COC5)C4)cc23)c(C)c1 [Compound 13, 3-(2,4-dimethylbenzenesulfonyl)-8-{2-oxa-6-azaspiro[3.3]heptan-6-yl}-4H,5H-[1,2,3]triazolo[1,5-a]quinazolin-5-one], the “Ratio IC50 (in presence of HSA)/IC50” value is reported as “++ (ratio ≤ 125)”, the IC50 [2] is reported as 22.1 to 111 µM and the IC50 [3] is reported as under 2.21 µM.

Cc1ccc(S(=O)(=O)c2nnn3c2[nH]c(=O)c2ccc(N4CC5(CN(C)C5)C4)cc23)c(C)c1 [Compound 14, 3-(2,4-dimethylbenzenesulfonyl)-8-{6-methyl-2,6-diazaspiro[3.3]heptan-2-yl}-4H,5H-[1,2,3]triazolo[1,5-a]quinazolin-5-one] was tested, and the “Ratio IC50 (in presence of HSA)/IC50” value was “+++ (ratio ≤ 25)”, the IC50 [2] was 21.5 to 108 µM and the IC50 [3] was 2.15 to 10.8 µM.

In the case of Cc1ccc(S(=O)(=O)c2n[nH]n3c2nc(=O)c2ccc(N4CCC5(CC4)CNCCO5)cc23)c(C)c1 [Compound 15, 3-(2,4-dimethylbenzenesulfonyl)-8-{1-oxa-4,9-diazaspiro[5.5]undecan-9-yl}-1H,5H-[1,2,3]triazolo[1,5-a]quinazolin-5-one], the “Ratio IC50 (in presence of HSA)/IC50” value is reported as “+++ (ratio ≤ 25)”, the IC50 [2] is reported as 19.7 to 98.3 µM and the IC50 [3] is reported as under 1.97 µM.

With Cc1ccc(S(=O)(=O)c2n[nH]n3c2nc(=O)c2ccc(N4CCC5(CC4)CN(C)CCO5)cc23)c(C)c1 [Compound 16, 3-(2,4-dimethylbenzenesulfonyl)-8-{4-methyl-1-oxa-4,9-diazaspiro[5.5]undecan-9-yl}-1H,5H-[1,2,3]triazolo[1,5-a]quinazolin-5-one] the “Ratio IC50 (in presence of HSA)/IC50” value was “++ (ratio ≤ 125)”, the IC50 [2] was 19.1 to 95.7 µM and the IC50 [3] was under 1.91 µM.

With Cc1ccc(S(=O)(=O)c2n[nH]n3c2nc(=O)c2ccc(N4CCOC5(CCNCC5)C4)cc23)c(C)c1 [Compound 17, 3-(2,4-dimethylbenzenesulfonyl)-8-{1-oxa-4,9-diazaspiro[5.5]undecan-4-yl}-1H,5H-[1,2,3]triazolo[1,5-a]quinazolin-5-one] the “Ratio IC50 (in presence of HSA)/IC50” value was “+++ (ratio ≤ 25)”, the IC50 [2] was 19.7 to 98.3 µM and the IC50 [3] was 1.97 to 9.83 µM.

With Cc1ccc(S(=O)(=O)c2n[nH]n3c2nc(=O)c2ccc(N4CCOC5(CCN(C)CC5)C4)cc23)c(C)c1 [Compound 18, 3-(2,4-dimethylbenzenesulfonyl)-8-{9-methyl-1-oxa-4,9-diazaspiro[5.5]undecan-4-yl}-1H,5H-[1,2,3]triazolo[1,5-a]quinazolin-5-one] the “Ratio IC50 (in presence of HSA)/IC50” value was “+++ (ratio ≤ 25)”, the IC50 [2] was 19.1 to 95.7 µM and the IC50 [3] was 1.91 to 9.57 µM.

— patent publication US20250213575A1, “8-HETEROCYCLIC-3-(PHENYLSULFONYL)-[1,2,3]TRIAZOLO[1,5A]QUINAZOLIN-5(4H)-ONE DERIVATIVES AS ANTI-BACTERIALS” (priority 2022, published 2025)
